# Laboratory results as given in US7507859B2, “Functional synthetic molecules and macromolecules for gene delivery” (Fifth Base LLC, priority 2003, dated 2009).
# Legend:
# Gel formation in DMSO = format: physicochemical; conditions: sonication (30 sec) or heating to 60 C for 5 minutes and cooling to room temperature
# Protocol: The gels can be produced by either 1) sonication (30 sec) or by heating the suspensions to 60 C for 5 minutes and cooling to room temperature.
# DNA [1] = experiment: Ethidium bromide-DNA fluorescence quenching exclusion assay; format: binding; conditions: 2 mM HEPES, 150 mM NaCl, 10 μm EDTA, pH 7.4; 60 minutes incubation; triplicate
# Protocol: Exclusion assay (adapted from; A. J. Geall, I. S. Blagbrough, Journal of Pharmaceutical and Biomedical Analysis 22 (2000) 849-859)
# (§1) Five μg (5 μl of 1 mg/mL solution) of DNA and varying amount of amphiphiles (dependent on the Amphiphile/DNA ratio required) were diluted to 1000 μL with buffer (2 mM HEPES, 150 mM NaCl, 10 μm EDTA, pH 7.4). The solutions were mixed on a bench top vortex and incubated for 60 minutes at ambient temperature. Each solution was then diluted to 3 mL with buffer (2 mM HEPES, 150 mM NaCl, 10 μm EDTA, pH 7.4). Immediately prior to the analysis, 3 μL of Eth Br solution (0.6 mg/ml, 1.3 mM, effectively present in excess) was added, the sample was mixed on a bench top vortex, and the fluorescence measured. The fluorescence was expressed as the percentage of the maximum fluorescence signal when EthBr was bound to the DNA in the absence of amphiphile. Assays were run in triplicate. […] Compound 30a bound DNA and displaced EthBr.
# [2] = system: chinese hamster ovary (CHO) cells; experiment: B-galactosidase transfection assay; format: cell-based; conditions: varying concentrations of lipid and DNA, triplicate, 96 well plates, chemiluminescent reporter
# Protocol: Transfection assays were performed using the well established B-galactosidase transfection assay. In these experiments the B-galactosidase gene is transfected into cells. Next, the expressed enzyme then cleaves a chemiluminescent reporter that is detected. The assays are conducted with chinese hamster ovary (CHO) cells following a standard lipid transfection procedure. The procedure is performed on varying concentrations of lipid and DNA in triplicate in 96 well plates.
# DNA [3] = experiment: Exclusion assay after addition of an esterase (DNA release); format: biochemical; conditions: esterase added to the amphiphile-DNA solution; EthBr intercalates again
# Protocol: as §1
Gel formation in DMSO (Gel formation in DMSO),DNA binding and displacement of EtBr (DNA [1]),Compound,Transfection of the B-galactosidase gene [2],DNA release from the amphiphile after esterase cleavage of the ester linkages (DNA [3])
,did not bind DNA and displace EthBr,"C[N+](C)(C)CC(COC(=O)CCCCCCCCCCC(=O)O)OC(=O)CCCCCCCCCCC(=O)O.[I-] (stereo not shown) [Compound 35, [2,3-Bis-(11-carboxy-undecanoyloxy)-propyl]-trimethyl-ammonium; iodide]",minimal transfection activity,
,bound DNA and displaced EtBr,CCCCCCCCCCCCCC(=O)OCC(COC(=O)CCCCCCCCCCCCC)OC(=O)CCC(=O)OCC(COC(=O)CCC(=O)OC(COC(=O)CCCCCCCCCCCCC)COC(=O)CCCCCCCCCCCCC)OC(=O)CCC(=O)OC(COC(=O)CCC(=O)OCC[N+](C)(C)C)COC(=O)CCC(=O)OCC[N+](C)(C)C [Compound 85],,
,bound DNA and displaced EtBr,Trimethylamino-[G0]-PGLSA dendrimer iodide [Compound 44],,
,bound DNA and displaced EtBr,Trimethylamino-[G1]-PGLSA dendrimer iodide [Compound 47],,

# Further lines, the compound ahead of its results:
Compound,Gel formation in DMSO (Gel formation in DMSO),DNA binding and displacement of EtBr (DNA [1]),Transfection of the B-galactosidase gene [2],DNA release from the amphiphile after esterase cleavage of the ester linkages (DNA [3])
"CCCCCCCCCCCCCCCC(=O)O[C@@H]1[C@H](OC(=O)CCCCCCCCCCCCCCC)[C@@H](CO)O[C@H]1n1ccc(=O)[nH]c1=O [2′,3′dipalmitoyl uridine, 2′,3′palmitoyl uridine]",form gels in DMSO,,,
"C[N+](C)(C)CC(COC(=O)NCCCCCCCCCCCC(=O)OCC1CC(=O)Oc2cc(O)c(Br)cc21)OC(=O)NCCCCCCCCCCCC(=O)OCC1CC(=O)Oc2cc(O)c(Br)cc21.[I-] (stereo not shown) [Compound 26, {2,3-Bis-[11-(6-bromo-7-hydroxy-2-oxo-chroman-4-ylmethoxycarbonyl)-undecylcarbamoyloxy]-propyl}-trimethyl-ammonium iodide]",,bound DNA and displaced EtBr,,
"C[N+](C)(C)CC(COC(=O)CCCCCCCCCCC(=O)OCc1ccccc1)OC(=O)CCCCCCCCCCC(=O)OCc1ccccc1.[I-] (stereo not shown) [Compound 30a, [2,3-Bis-(11-benzyloxycarbonyl-undecanoyloxy)-propyl]-trimethyl-ammonium; iodide]",,bound DNA and displaced EtBr,transfected the B-galactosidase gene,releasing the DNA from the amphiphile
"C[N+](C)(C)CC(COC(=O)CCCCCCCCCCC(=O)OCc1ccccc1[N+](=O)[O-])OC(=O)CCCCCCCCCCC(=O)OCc1ccccc1[N+](=O)[O-].[I-] (stereo not shown) [Compound 30b, {2,3-Bis-[11-(2-nitro-benzyloxycarbonyl)-undecanoyloxy]-propyl}-trimethyl-ammonium; iodide]",,bound DNA and displaced EtBr,,
"CC(C)(C)OC(=O)CCCCCCCCCCC(=O)OCC(C[N+](C)(C)C)OC(=O)CCCCCCCCCCC(=O)OC(C)(C)C.[I-] (stereo not shown) [Compound 34, [2,3-Bis-(11-tert-butoxycarbonyl-undecanoyloxy)-propyl]-trimethyl-ammonium; iodide]",,bound DNA and displaced EtBr,,releasing the DNA from the amphiphile
"CC(=O)OCC(C[N+](C)(C)C)OC(C)=O.[I-] (stereo not shown) [Compound 36, (2,3-Diacetoxy-propyl)-trimethyl-ammonium; iodide]",,did not bind DNA and displace EthBr,minimal transfection activity,
"C[N+](C)(C)CC(COC(=O)CCCCCCCCCCCOCc1ccccc1)OC(=O)CCCCCCCCCCCOCc1ccccc1.[I-] (stereo not shown) [Compound 40, [2,3-Bis-(12-benzyloxy-dodecanoyloxy)-propyl]-trimethyl-ammonium; iodide]",,,transfected the B-galactosidase gene,
